We go through two compounds from patent publication US20250186408A1, “TREATMENT OF PHARMACORESISTANT EPILEPSY” (Katholieke Universiteit Leuven, priority 2021, published 2025).

Read-outs that look alike come from different tables or passages of the source.

A short description of one series: Plasma protein binding. Type of series: in vitro ADME. To be noted: pH 7.4, human plasma. An excerpt: In vitro ADME profiling of compounds was done by Eurofins Panlabs Inc (St Charles, MO, USA) using their ADME-Tox service (Cat Ref P375, Tier 1 ADME Panel). […] (28). The atom-based log P calculation method, called OsirisP, uses as an increment system and adds contributions of every atom based on its atom type. The prediction engine distinguishes a total of 368 atom types and was optimized using a training set of more than 5000 molecules with experimentally determined log P values. The free prediction engine has proven to outperform many alternative calculation methods (29).
Human plasma, used as the protein containing matrix, was spiked with the test compound at 10 μM (final solvent concentration of 1% DMSO). The assay was performed in a 96-well format in a dialysis block (Teflon) with the dialysate compartment containing PBS (pH 7.4) and the sample side containing an equal volume of the spiked protein matrix. The plate was incubated at 37° C. for 4 h. After incubation, samples were taken from both compartments, diluted with the phosphate buffer, followed by the addition of acetonitrile and centrifugation. The supernatants were then used for HPLC-MS/MS analysis. Acebutolol, quinidine and warfarin were tested in each assay. The percentage bound to proteins and the recovery were calculated as follows: […]

In the next series the target is T1, CCKAR (Homo sapiens, UniProt P32238).
T1 sequence (P32238 1-428): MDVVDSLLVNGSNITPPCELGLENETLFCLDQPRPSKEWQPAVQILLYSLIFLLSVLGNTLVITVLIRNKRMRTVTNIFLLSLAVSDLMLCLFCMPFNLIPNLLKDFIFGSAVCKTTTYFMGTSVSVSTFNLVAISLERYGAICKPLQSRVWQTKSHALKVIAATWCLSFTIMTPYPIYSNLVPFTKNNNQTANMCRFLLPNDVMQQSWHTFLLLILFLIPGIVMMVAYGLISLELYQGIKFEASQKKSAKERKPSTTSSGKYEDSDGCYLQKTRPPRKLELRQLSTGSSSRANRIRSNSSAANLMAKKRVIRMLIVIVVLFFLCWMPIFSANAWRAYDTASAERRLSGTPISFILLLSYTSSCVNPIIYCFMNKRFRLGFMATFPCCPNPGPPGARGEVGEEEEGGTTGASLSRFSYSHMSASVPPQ
As to the kind of experiment: Calcium Flux CCKAR Agonist. It is filed as cell-based. To be noted: for EC50: read-out: RC50, result type EC50; for Emax: read-out: Max response. Here is the method:
(≤0.2% DMSO concentration). Assays were performed in 1× dye loading buffer consisting of 1× Dye (DiscoverX, Calcium No Wash^PLUS kit, Catalog No. 90-0091), 1× Additive A and 2.5 mM Probenecid in HBSS/20 mM HEPES. Probenecid was prepared fresh. Prior to testing, media was aspirated from cells and replaced with 25 μL dye loading buffer. Cells were incubated for 45 min at 37° C. and then 20 min at RT. For agonist determination, 25 μL of 2× compound in HBSS/20 mM HEPES was added using a FLIPR Tetra (MDS). […] 25 μL of 2× sample was added and cells were incubated for 30 min at RT in the dark to equilibrate plate temperature. After incubation, antagonist determination was initiated by addition of 25 μL of 1× compound with 3×EC80 agonist using FLIPR. For both agonist and antagonist formats, activity was measure on a FLIPR Tetra (MDS). Calcium mobilization was monitored for 2 min with a 5 sec baseline read.
FLIPR read—Area under the curve, was calculated for the entire 2 min read.

In another series the target is T2, COX2 (Homo sapiens, UniProt P35354).
T2 construct: purchased BPS Bioscience
T2 sequence (P35354 18-604): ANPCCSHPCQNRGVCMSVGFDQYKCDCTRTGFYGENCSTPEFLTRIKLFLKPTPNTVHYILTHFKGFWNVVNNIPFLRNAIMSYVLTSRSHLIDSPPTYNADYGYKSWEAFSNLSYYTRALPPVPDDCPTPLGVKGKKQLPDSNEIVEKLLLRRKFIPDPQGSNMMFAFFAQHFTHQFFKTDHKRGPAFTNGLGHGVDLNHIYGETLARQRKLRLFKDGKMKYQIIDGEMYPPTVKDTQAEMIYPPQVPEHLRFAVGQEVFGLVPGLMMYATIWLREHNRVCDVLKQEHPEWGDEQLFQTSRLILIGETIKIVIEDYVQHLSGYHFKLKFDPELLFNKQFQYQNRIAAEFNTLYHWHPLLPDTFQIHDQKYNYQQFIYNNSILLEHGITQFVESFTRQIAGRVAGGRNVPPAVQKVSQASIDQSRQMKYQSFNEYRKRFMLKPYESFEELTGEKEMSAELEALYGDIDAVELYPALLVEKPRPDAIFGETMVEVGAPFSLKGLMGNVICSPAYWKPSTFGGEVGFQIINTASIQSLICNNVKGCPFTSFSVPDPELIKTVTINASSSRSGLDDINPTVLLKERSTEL
As to the kind of experiment: Enzymatic COX2 Inhibitor. Type of series: biochemical. The note with it: for IC50: read-out: RC50, result type IC50; for Emax: read-out: Max response. The protocol: Enzyme preparations were sourced from various vendors-AChE (R&D Systems), COX1 and COX2 (BPS Bioscience), MAOA (Sigma), PDE3A and PDE4D2 (Signal Chem). AChE: enzyme and test compound were pre-incubated for 15 min at RT before substrate addition. Acetylthiocholine and DTNB were added and incubated at RT for 30 min. Signal was detected by measuring absorbance at 405 nm. COX1 and COX2: enzyme stocks were diluted in assay buffer (40 mM Tris-HCl, 1×PBS, 0.5 mM Phenol, 0.01% Tween 20 and 10 nM Hematin) and allowed to equilibrate with compounds at RT for 30 min (binding incubation). Arachidonic acid (1.7 μM) and Ampliflu Red (2.5 μM) were prepared and dispended into a reaction plate. Plates were read immediately on a fluorimeter with the emission detection at 590 nm and excitation wavelength 544 nm. MAOA: enzyme and test compound were pre-incubated for 15 min at 37° C. before substrate addition. The reaction was initiated by addition of kynuramine and incubated at 37° C. for 30 min. The reaction was terminated by addition of NaOH. The amount of 4-hydroquinoline formed was determined through spectrofluorometric readout with the emission detection at 380 nm and excitation wavelength 310 nm. PDE3A and PDE4D2: enzyme and test compound were pre-incubated for 15 min at RT before substrate addition. cAMP substrate (at a concentration equal to EC80) was added and incubated at RT for 30 min. Enzyme reaction was terminated by addition of 9 mM IBMX. Signal was detected using the HitHunter® cAMP detection kit. Microplates were transferred to a PerkinElmer Envision™ instrument and read out as described for each assay. […] For enzyme activity assays, percentage inhibition was calculated using the following equation: […]

The target of a further series is OPRK1 (Homo sapiens, UniProt P41145). The series is described as follows: cAMP OPRK1 Antagonist. The note with it: for Emax: read-out: Max response.
OPRK1, sequence (P41145 whole entry): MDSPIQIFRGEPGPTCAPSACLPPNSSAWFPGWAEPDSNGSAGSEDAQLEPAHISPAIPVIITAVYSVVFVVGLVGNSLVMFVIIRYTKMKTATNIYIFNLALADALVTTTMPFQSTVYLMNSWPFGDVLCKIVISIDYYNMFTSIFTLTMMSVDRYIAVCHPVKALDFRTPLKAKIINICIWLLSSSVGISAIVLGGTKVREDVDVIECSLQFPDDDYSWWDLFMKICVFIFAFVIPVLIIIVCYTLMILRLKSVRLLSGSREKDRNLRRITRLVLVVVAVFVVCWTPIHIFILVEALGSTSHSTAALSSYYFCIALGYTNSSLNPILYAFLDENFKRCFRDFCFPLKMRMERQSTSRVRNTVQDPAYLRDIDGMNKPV

Protocol for OPRK1: In vitro pharmacological profiling of compounds was done against 78 functional assays for 47 common off-targets (30) by Eurofins DiscoverX Corporation (Fremont, CA, USA) using their SAFETYscan E/IC50 ELECT service (Cat Ref 87-1003DR, Safety47 Panel Dose Response). […] Compounds were tested in a range of 10 concentrations, following a 3-fold serial dilution, starting from 10 μM. The assays were performed utilizing the PathHunter enzyme fragment complementation (EFC) technology, FLIPR®-based cellular screening assays, and KINOMEscan kinase binding assays.
cAMP Hunter cell lines were expanded from freezer stocks. Prior to testing, cells were seeded in a total volume of 20 μL into white walled 384-well microplates and incubated at 37° C. cAMP modulation was determined using the DiscoverX HitHunter cAMP XS+ assay. For Gs agonist determination, cells were incubated with sample to induce response. For Gi agonist determination, cells were incubated with sample in the presence of EC80 forskolin to induce response. For both conditions, media was aspirated from cells and replaced with 15 μL 2:1 HBSS/10 mM HEPES:cAMP XS+ Ab reagent. Intermediate dilution of sample stocks was performed to generate 4× sample in assay buffer (containing 4×EC80 forskolin in the case of antagonist determination). 5 μL of 4× sample was added to cells and incubated at 37° C. or room temperature (RT) for 30 or 60 min. Final assay vehicle concentration was 1%. For antagonist determination, cells were pre-incubated with sample followed by agonist challenge at the EC80 concentration. Media was aspirated from cells and replaced with 10 μL 1:1 HBSS/HEPES:cAMP XS+ Ab reagent. 5 μL of 4× compound was added to the cells and incubated at 37° C. or RT for 30 min. 5 μL of 4×EC80 agonist was added to the cells and incubated at 37° C. or RT for 30 or 60 min. For Gi coupled GPCRs, EC80 forskolin was included. […] Microplates were read following signal generation with a PerkinElmer Envision™ instrument for chemiluminescent signal detection. Compound activity was analyzed using CBIS data analysis suite (ChemInnovation, CA). For Gs agonist mode assays, percentage activity was calculated using the following equation:

As for `CC(C)(C)c1ccc(C#CC(O)c2ccccc2)cc1` (racemic) [Compound 3.3, rac-3-(4-(tert-butyl)phenyl)-1-phenylprop-2-yn-1-ol], in the series “Plasma protein binding”, the fraction unbound at 4 h, 10 μM was 0.002. The concentration giving a half-maximal response (EC50) at CCKAR (Calcium Flux CCKAR Agonist) was above 10 µM. In addition, the Emax was 0.2% on CCKAR, 0% at COX2 and 8.9% on OPRK1. Moreover, the IC50 at COX2 (Enzymatic COX2 Inhibitor) and at OPRK1 was above 10 µM each time.
In the case of `Clc1cccc(C#Cc2n[nH]c3ncccc23)c1` [Compound 10.1, 3-((3-chlorophenyl)ethynyl)-1H-pyrazolo[3,4-b]pyridine], in the series “Plasma protein binding”, the fraction unbound at 4 h, 10 μM is 0.0035. For the same compound, on CCKAR (Calcium Flux CCKAR Agonist), the Emax came out at 0.3% and the EC50 is above 10 µM. For the same compound, at COX2 (Enzymatic COX2 Inhibitor), the Emax is 0% and the IC50 was above 10 µM. Besides, at OPRK1, the IC50 is above 10 µM and the Emax was 0%.
